# Tests used:
# [1] = test system: spray-dried preparation of Lactobacillus johnsonii (CNCM I-1225); assay: Treatment of green coffee extract with spray-dried preparation of L. johnsonii, HPLC
# Procedure: 30 mg of a dried green coffee extract was dissolved in 1 ml phosphate buffer (50 mM, pH 7.0) or in 1 ml water. To this solution, 10 mg of a spray-dried preparation of Lactobacillus johnsonii (3.3 E9 cfu/g) was added. The mixture was then incubated at 37° C. and samples were withdrawn at different reaction times. After centrifugation (3000 g, 5 min) and filtration (0.45 μm pore size syringe filters, Millipore SLHA 025 BS) the samples were analysed by HPLC.
# (§1) Coffee samples were diluted to 1% w/w and analyzed by RP-HPLC on a CC 250/4 Nucleosil 100-5-C18 column (Macherey-Nagel). The eluent system was Millipore water, 0.1% TFA and CH3CN at a flow rate of 1 mL/min. The method allowed the simultaneous determination of caffeoyl quinic acids (CQA), feruloyl quinic acids (FQA), di-caffeoyl quinic acids (diCQA), feruloyl quinic acid-lactones, caffeic acid (CA) and ferulic acid (FA) (absorbance at 325 nm) using external standard calibration curves. Results were expressed relative to the reference at time 0 (t0) or to the reference at the same time without bacteria.
# [2] = test system: spray-dried preparation of Lactobacillus johnsonii (CNCM I-1225); assay: Treatment of NESCAFE PROTECT with spray-dried preparation of L. johnsonii, HPLC
# Procedure: To this solution, 10 mg of a spray-dried preparation of Lactobacillus johnsonii (CNCM I-1225) (3.3 E9 cfu/g) were added. The mixture was then incubated at 37° C. and samples were withdrawn at different reaction times. After centrifugation (3000 g, 5 min) and filtration (0.45 μm pore size syringe filters, Millipore SLHA 025 BS) the samples were analysed by HPLC.
# as §1
# [3] = test system: Lactobacillus johnsonii (CNCM I-1225); assay: Treatment of coffee extracts with bacteria cells (L. johnsonii), HPLC
# Procedure: as §1
# (§2) Tested strains were harvested (centrifugation at 5000 g for 10 min) after having well reached stationary phase, corresponding to 16 hours of incubation in culture medium at 37° C. in anaerobic atmosphere without agitation. For a first activation of the strains, frozen stock cultures were inoculated in fresh media and grown overnight. This pre-culture was used to inoculate the culture.
# (§3) After culture of bacteria and centrifugation, the pellets were resuspended in phosphate buffer (pH 7.0) at a concentration of 0.61 g/ml. To 200 μl of this cells preparation, 800 μl of a coffee solution (3%) was added and the mixture was incubated at 37° C. for 4 h, 16 h and 24 h.
# [4] = test system: Chlorogenate esterase; assay: Incubation of coffee extracts with chlorogenate esterase, HPLC; type: biochemical, Aspergillus japonicus
# Procedure: as §1
# Chlorogenate esterase (24 U/g), derived from Aspergillus japonicus (Kikkoman, Japan). Tannase from Aspergillus oryzae (Kikkoman, Japan) Preparation of Bacteria Cells
# A solution of chlorogenate esterase (25 mg) in 200 μl phosphate buffer (pH 7.0) was added to 800 μl of a coffee solution (3%). The mixture was then incubated at 37° C. for 4 h, 16 h and 24 h. After reaction time, the enzymatic activity was stopped by heat treatment (3 min, 90° C.) and the mixture was filtered before analysis.
# [5] = test system: Lactobacillus johnsonii (CNCM I-1225) extract (lysed cells); assay: Treatment of NESCAFE PROTECT with L. johnsonii extract (lysed cells), HPLC; type: biochemical
# Procedure: Cells of L. johnsonii (CNCM I-1225) were grown (7.0 E08 cfu/ml) and centrifuged (5000 g, 10 min), the pellets were resuspended in phosphate buffer (50 mM, pH 7.0) at a concentration of 0.61 g/ml. The cells were then lysed using the glass-beads method. 600 μl of cells preparation were put in screw-cap tubes and 600 μl of glass-beads were added at 0° C. The tubes were then put into a Mini-Beadbeater for 1 min of intense shaking, cooled in ice, and put another 1 min in the Mini-Beadbeater. […] Samples were withdrawn at different reaction times, centrifuged (3000 g, 5 min), filtered through 0.45 μm pore size syringe filters (Millipore SLHA 025 BS) and analysed by HPLC.
# as §1
# [6] = test system: concentrated preparation of Lactobacillus johnsonii (CNCM I-1225); assay: Treatment of NESCAFE with concentrated preparation of L. johnsonii, HPLC
# Procedure: 400 mg of NESCAFE SPECIAL FILTRE® (a dried extract of roasted coffee beans) were dissolved in 1 ml of boiling water and the solution was cooled to 37° C. at room temperature. To 250 μl of this coffee solution, different amounts of concentrated preparation of Lactobacillus johnsonii (50 μl, 100 μl, 350 μl, 750 μl) were added and the volume was adjusted to 1 ml with water. The mixtures were than incubated at 37° C. for 2 h and 4 h. After centrifugation (3000 g, 5 min) and filtration the samples were analysed by HPLC.
# as §1
# [7] = test system: Lactobacillus johnsonii (CNCM I-1225) fresh cells; assay: Treatment of NESCAFE PROTECT with L. johnsonii fresh cells, HPLC of chlorogenic and phenolic acids
# Procedure: Cells of L. johnsonii (CNCM I-1225) were grown (7.0 E08 cfu/ml) and centrifuged (5000 g, 10 min), the pellets were resuspended in phosphate buffer (50 mM, pH 7.0) at a concentration of 0.61 g/ml. […] Samples were withdrawn at different reaction times, centrifuged (3000 g, 5 min) and filtered through 0.45 μm pore size syringe filters (Millipore SLHA 025 BS) and analysed by HPLC.
# A reaction control was run in parallel under the same reaction conditions but without bacteria.
# as §1
# [8] = test system: Bifidobacterium lactis BB12 (CNCM I-3446); assay: Treatment of coffee extracts with bacteria cells (B. lactis), HPLC
# Procedure: as §1, §2, §3
# [9] = NESCAFE PROTECT + Lactobacillus johnsonii, 4 h
# [10] = NESCAFE PROTECT + Lactobacillus johnsonii, 16 h
# [11] = NESCAFE PROTECT + Lactobacillus johnsonii, 24 h
# [12] = green coffee extract + Lactobacillus johnsonii, 4 h
# [13] = green coffee extract + Lactobacillus johnsonii, 16 h
# [14] = green coffee extract + Lactobacillus johnsonii, 24 h
# [15] = NESCAFE PROTECT + Chlorogenate esterase, 4 h
# [16] = NESCAFE PROTECT + Chlorogenate esterase, 16 h
# [17] = NESCAFE PROTECT + Chlorogenate esterase, 24 h
# [18] = green coffee extract + Chlorogenate esterase, 4 h
# [19] = green coffee extract + Chlorogenate esterase, 16 h
# [20] = green coffee extract + Chlorogenate esterase, 24 h
# [21] = NESCAFE PROTECT + Bifidobacterium lactis, 4 h
# [22] = NESCAFE PROTECT + Bifidobacterium lactis, 16 h
# [23] = NESCAFE PROTECT + Bifidobacterium lactis, 24 h
# [24] = green coffee extract + Bifidobacterium lactis, 4 h
# [25] = green coffee extract + Bifidobacterium lactis, 16 h
# [26] = green coffee extract + Bifidobacterium lactis, 24 h
compound,measurement,setting,value
"O=C(O)/C=C/c1ccc(O)c(O)c1 [CA, caffeic acid]",% relative to untreated control at t = 0,[1]; 4 h,2673%
same,% relative to untreated control at t = 0,[1]; 6 h,3762%
same,% relative to untreated control at t = 0,[1]; 16 h,5182%
same,% relative to untreated control at t = 0,[1]; 24 h,6145%
same,% relative to untreated control at t = 0,[2]; 2 h,3598%
same,% relative to untreated control at t = 0,[2]; 6 h,6140%
same,% relative to untreated control at t = 0,[2]; 24 h,7879%
same,% relative to untreated control at t = 0,[3]; [9],7942%
same,% relative to untreated control at t = 0,[3]; [10],9429%
same,% relative to untreated control at t = 0,[3]; [11],9933%
same,% relative to untreated control at t = 0,[3]; [12],12505%
same,% relative to untreated control at t = 0,[3]; [13],17148%
same,% relative to untreated control at t = 0,[3]; [14],18107%
same,% relative to untreated control at t = 0,[4]; [15],10879%
same,% relative to untreated control at t = 0,[4]; [16],10198%
same,% relative to untreated control at t = 0,[4]; [17],10750%
same,% relative to untreated control at t = 0,[4]; [18],18917%
same,% relative to untreated control at t = 0,[4]; [19],17275%
same,% relative to untreated control at t = 0,[4]; [20],18318%
same,Concentration in % relative to untreated reference at t = 0,"[5]; 2 h, cell preparation 100.0 uL",10729%
same,Concentration in % relative to untreated reference at t = 0,"[5]; 2 h, cell preparation 350.0 uL",13901%
same,Concentration in % relative to untreated reference at t = 0,"[5]; 6 h, cell preparation 100.0 uL",12581%
same,Concentration in % relative to untreated reference at t = 0,"[5]; 6 h, cell preparation 350.0 uL",16300%
same,% relative to untreated control at t = 0,"[6]; cell amount 50 μL/1 mL, 2 h",1737%
same,% relative to untreated control at t = 0,"[6]; cell amount 50 μL/1 mL, 4 h",1763%
same,% relative to untreated control at t = 0,"[6]; cell amount 100 μL/1 mL, 2 h",2885%
same,% relative to untreated control at t = 0,"[6]; cell amount 100 μL/1 mL, 4 h",2803%
same,% relative to untreated control at t = 0,"[6]; cell amount 350 μL/1 mL, 2 h",5752%
same,% relative to untreated control at t = 0,"[6]; cell amount 350 μL/1 mL, 4 h",4491%
same,% relative to untreated control at t = 0,"[6]; cell amount 750 μL/1 mL, 2 h",7292%
same,% relative to untreated control at t = 0,"[6]; cell amount 750 μL/1 mL, 4 h",5514%
same,Concentration in % relative to untreated reference at t = 0,"[7]; 6 h, cell preparation 100 uL",10111%
same,Concentration in % relative to untreated reference at t = 0,"[7]; 6 h, cell preparation 350 uL",14282%
same,Concentration in % relative to untreated reference at t = 0,"[7]; 6 h, cell preparation 750 uL",13215%
same,Concentration in % relative to untreated reference at t = 0,"[7]; 24 h, cell preparation 100 uL",13661%
same,Concentration in % relative to untreated reference at t = 0,"[7]; 24 h, cell preparation 350 uL",15981%
same,Concentration in % relative to untreated reference at t = 0,"[7]; 24 h, cell preparation 750 uL",13238%
same,% relative to untreated control at t = 0,[8]; [21],968%
same,% relative to untreated control at t = 0,[8]; [22],2258%
same,% relative to untreated control at t = 0,[8]; [23],2840%
same,% relative to untreated control at t = 0,[8]; [24],1521%
same,% relative to untreated control at t = 0,[8]; [25],4182%
same,% relative to untreated control at t = 0,[8]; [26],5283%
di-caffeoyl quinic acids [diCQA],% relative to untreated control at t = 0,[1]; 4 h,67%
same,% relative to untreated control at t = 0,[1]; 6 h,53%
same,% relative to untreated control at t = 0,[1]; 16 h,32%
same,% relative to untreated control at t = 0,[1]; 24 h,20%
same,% relative to untreated control at t = 0,[3]; [9],18%
same,% relative to untreated control at t = 0,[3]; [10],2%
same,% relative to untreated control at t = 0,[3]; [11],2%
same,% relative to untreated control at t = 0,[3]; [12],35%
same,% relative to untreated control at t = 0,[3]; [13],6%
same,% relative to untreated control at t = 0,[3]; [14],3%
same,% relative to untreated control at t = 0,[4]; [15],0%
same,% relative to untreated control at t = 0,[4]; [16],0%
same,% relative to untreated control at t = 0,[4]; [17],1%
same,% relative to untreated control at t = 0,[4]; [18],0%
same,% relative to untreated control at t = 0,[4]; [19],0%
same,% relative to untreated control at t = 0,[4]; [20],0%
same,Concentration in % relative to untreated reference at t = 0,"[5]; 2 h, cell preparation 100.0 uL",8%
same,Concentration in % relative to untreated reference at t = 0,"[5]; 2 h, cell preparation 350.0 uL",1%
same,Concentration in % relative to untreated reference at t = 0,"[5]; 6 h, cell preparation 100.0 uL",1%
same,Concentration in % relative to untreated reference at t = 0,"[5]; 6 h, cell preparation 350.0 uL",1%
same,% relative to untreated control at t = 0,"[6]; cell amount 50 μL/1 mL, 2 h",86%
same,% relative to untreated control at t = 0,"[6]; cell amount 50 μL/1 mL, 4 h",75%
same,% relative to untreated control at t = 0,"[6]; cell amount 100 μL/1 mL, 2 h",68%
same,% relative to untreated control at t = 0,"[6]; cell amount 100 μL/1 mL, 4 h",56%
same,% relative to untreated control at t = 0,"[6]; cell amount 350 μL/1 mL, 2 h",23%
same,% relative to untreated control at t = 0,"[6]; cell amount 350 μL/1 mL, 4 h",15%
same,% relative to untreated control at t = 0,"[6]; cell amount 750 μL/1 mL, 2 h",6%
same,% relative to untreated control at t = 0,"[6]; cell amount 750 μL/1 mL, 4 h",6%
same,Concentration in % relative to untreated reference at t = 0,"[7]; 6 h, cell preparation 100 uL",23%
same,Concentration in % relative to untreated reference at t = 0,"[7]; 6 h, cell preparation 350 uL",0%
same,Concentration in % relative to untreated reference at t = 0,"[7]; 6 h, cell preparation 750 uL",0%
same,Concentration in % relative to untreated reference at t = 0,"[7]; 24 h, cell preparation 100 uL",2%
same,Concentration in % relative to untreated reference at t = 0,"[7]; 24 h, cell preparation 350 uL",0%
same,Concentration in % relative to untreated reference at t = 0,"[7]; 24 h, cell preparation 750 uL",0%
same,% relative to untreated control at t = 0,[8]; [21],91%
same,% relative to untreated control at t = 0,[8]; [22],72%
same,% relative to untreated control at t = 0,[8]; [23],67%
same,% relative to untreated control at t = 0,[8]; [24],85%
same,% relative to untreated control at t = 0,[8]; [25],70%
same,% relative to untreated control at t = 0,[8]; [26],64%

# Source: patent publication US8481028B2, “Compositions for preparing a coffee beverage comprising hydrolysed chlorogenic acid” (Nestec S.A., priority 2008, dated 2013)
